How the values were obtained:
[1] = Fluorescence imaging of doxorubicin distribution in rabbit livers after millirod implantation; conditions: in vivo
Description: In accordance with the present invention, we developed a fluorescence imaging method to analyze doxorubicin distribution in rabbit liver tissues. First, we determined the calibration curve to correlate fluorescence intensity with doxorubicin concentration in liver tissues. Second, we estimated the sensitivity limit (0.6 μg/g of liver tissue) for doxorubicin detection by this method. This value is well below the cytotoxic concentrations of doxorubicin to VX-2 cells (˜6.4 μg/g). (Ridge, J. A., Collin, C., Bading, J. R., Hancock, C., Conti, P. S., Daly, J. M. and Raaf, J. H. (1988) Cancer Res 48(16), 4584-7. Third, we used this method to quantify the dynamics of drug distribution in ablated and non-ablated rabbit livers over time. The detailed experimental procedure of the fluorescence imaging method is described below.
FIG. 14 compares the 2D doxorubicin distribution profiles between non-ablated and thermoablated liver tissues. In this set of experiments, a monolithic millirod with burst release kinetics (millirod (a) in FIG. 2) was implanted in either non-ablated or thermoablated livers. […] White dashed lines in the figures represent the ablated-normal tissue boundary, which was obtained by comparing the fluorescence image with an optical image of histology slides where this boundary is well-defined (see next section).

[2] = Structural integrity of doxorubicin after millirod fabrication (NMR); assay type: physicochemical; conditions: compression-heat molding, 90° C., 2 hours
Description: These devices are prepared as a monolithic system using a compression-heat-molding procedure that has been developed. (Qian, F., Szymanski, A. and Gao, J. (2001) J. Biomed. Mater. Res. 55, 512-522.) Briefly, doxorubicin solution (2 mg/mL, also containing 0.9% NaCl) from Bedford Laboratories is first dialyzed in distilled water to remove the NaCl. […] The well-mixed particles are placed in a Teflon tube and molded into a polymer millirod at a compression pressure of 4.6×10^6 Pa and a fabrication temperature at 90° C. for 2 hours.
Determination of the structural integrity of released doxorubicin. Released doxorubicin in PBS is desalted by gel filtration column chromatography (G-10 column, Pharmacia). Samples are lyophilized and characterized by ^1H and ^13C nuclear magnetic resonance (NMR) and mass spectrometry to examine their structural integrity. In NMR analysis, lyophilized agents are dissolved in deuterated methanol and spectrum will be obtained on a 300 MHz ^1H NMR instrument (Bruker). The chemical shifts of the released agents are compared to the pure compound to detect possible structural decomposition.

VX-2 cells = conditions: Ridge et al. 1988; cited from earlier work

SMILES: COc1cccc2c1C(=O)c1c(O)c3c(c(O)c1C2=O)C[C@@](O)(C(=O)CO)C[C@@H]3O[C@H]1C[C@H](N)[C@H](O)[C@H](C)O1 [doxorubicin]
- concentration at 24 h [1]: 50000 ng/g
- structure of doxorubicin after fabrication [2]: remained intact
- cytotoxic concentration of doxorubicin (VX-2 cells): ~6.4 µg/g

From patent US20030118649A1, “Drug delivery devices and methods” (priority 2001, published 2003)
